This experiment concerns CEM cells HIV-1 protection, formazan growth assay. The experiment can be described thus: NCI AIDS Antiviral Assay. As to conditions: for IC50: measured here: growth of uninfected CEM cells. The method, boiled down:
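CEM (human) cells, HIV-1 infected vs uninfected, 5-point dosing, formazan growth read-out. Retest threshold 50% protection.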

Activity calls are given as the source filed them.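 How the source made its calls: active means compounds giving half or more protection of infected cells from virus-caused growth loss, again on retest; inactive means the rest.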

Experimental findings from PubChem BioAssay AID179 (DTP/NCI, 2004) are described below.

The EC50 is the concentration that produces a half-maximal response. As a reminder, the IC50 is the concentration needed to halve the response being measured.

Take `COc1c(C)c(C/C=C(\C)CC/C=C(\C)CC/C=C(\C)CCC=C(C)C)c(OC)c2ccccc12`: the EC50 was more than 200 µM and the IC50 was 107 µM.

On to `CN(C)c1ccc2c3c(c(=O)oc2c1)CCC3`, for which the EC50 is more than 79.4 µM and the IC50 was more than 79.4 µM.

Regarding `CN(C)C1C(=O)C(C(N)=O)=C(O)C2(O)C(=O)C3=C(O)c4c(O)cccc4C(C)(O)C3C(O)C12` (configuration not stated), the EC50 is more than 263 µM and the IC50 came out at 95.5 µM.

For `Nc1ncnc2c1ncn2CC1COC(CO)O1` (configuration not stated), the EC50 was more than 1000 µM and the IC50 is more than 1000 µM.

Regarding `COC(=O)CSSCc1ccccc1`, the EC50 is more than 200 µM and the IC50 worked out at 5.25 µM.

Take `CC(=O)ONc1nn2cc(-c3ccccc3)nc2s1`: the EC50 is more than 200 µM and the IC50 is more than 200 µM.

Consider `Nc1nc(Cl)cc(NCC2(CO)CC=CC2)n1`, for which the EC50 is more than 200 µM and the IC50 was more than 200 µM.

On to `CC(=O)OC1C2C(=C(C)C(=O)O[C@@H]2c2ccoc2)[C@@]2(C)C3CCC(C)(C(=O)O3)C12` (some centres not stated), for which the EC50 was 162 µM and the IC50 is more than 200 µM.

Turning to `COc1c(C(=O)/C(=N/Nc2ccccc2)C(C)=O)c(O)c(OC)c2occc12`, the EC50 was more than 200 µM and the IC50 worked out at 38 µM.

Consider `N=C(N)C1CN(CC=O)C(=O)NC1=O` (configuration not stated), for which the EC50 was more than 200 µM and the IC50 was more than 200 µM.

Turning to `Cc1cc(C)c2c(c1)C(=O)C1(C2)Cc2c(ccc(C)c2C)C1=O` (configuration not stated), the EC50 was more than 100 µM and the IC50 was more than 100 µM.

Consider `COCCOCc1nc(C#N)c(N)o1`, for which the outcome was inactive.

`[N-]=[N+]=Nc1ccccc1Oc1ccccc1`: the EC50 was 58.9 µM and the IC50 was found to be 89.1 µM.

In the case of `C/C(=C\c1ccc(F)cc1)C(=O)O`, the EC50 was more than 275 µM and the IC50 is more than 275 µM.

For `N#CC1(C#N)C2C=CC(c3coc4cccc2c34)C1(C#N)C#N` (configuration not stated), the result was inactive.

`NCC(=O)NC(CCCC(NC(=O)CN)P(=O)(O)O)P(=O)(O)O` (configuration not stated): the result was inactive.

Consider `C#Cc1cc(CN(CC(=O)OC(C)(C)C)CC(=O)OC(C)(C)C)nc(CN(CC(=O)OC(C)(C)C)CC(=O)OC(C)(C)C)c1`, for which the EC50 was more than 11.5 µM and the IC50 came to 0.204 µM.

`CCOC(=O)C(NC(=O)Nc1ccc(Cl)cc1)(OC)C(F)(F)F` (configuration not stated): the outcome was inactive.

`CC1CC(c2ccc([N+](=O)[O-])cc2)=Nc2ccccc2S1=O` (configuration not stated): the EC50 is more than 12 µM and the IC50 is more than 12 µM.

Regarding `O=C(Nc1ccccc1)c1cc(S(=O)(=O)n2cc[nH]c2=O)c(S)cc1Cl`, the EC50 is more than 200 µM and the IC50 was more than 200 µM.

On to `N#CC12C(=O)N3C(=NC(c4ccccc4)NC3c3ccccc3)C1(C#N)C(c1ccccc1)NC1=C2CCCC1` (configuration not stated), for which the EC50 is more than 200 µM and the IC50 was more than 200 µM.

Take `CCCCNC1CCC2(SCCS2)c2[nH]c3ccccc3c21` (configuration not stated): the EC50 was more than 200 µM and the IC50 was 1.26 µM.

On to `C=C1[C@H]2CCC3(CC[C@H]4C5(CCC[C@@]4(C)C(=O)N(CCO)C5)[C@@H]3C2)[C@@H]1O`, for which the result was inactive.

Consider `Cc1ccsc1/C=N/Nc1nc2ccccc2s1`, for which the EC50 was more than 200 µM and the IC50 stood at 105 µM.

Consider `CN1C(=O)N/C(=C\c2ccc(S(=O)(=O)N/N=C\C(O)C(O)C(O)CO)cc2)C1=O` (configuration not stated), for which the EC50 is more than 200 µM and the IC50 is more than 200 µM.

Turning to `CCN1c2cc(Br)cc3[nH]c(=S)n(c23)CCC1C` (configuration not stated), the EC50 is 3.72 µM and the IC50 came out at 112 µM.

For the compound `CC(C)(C)c1cc(C=C(C#N)C#N)cc(C(C)(C)C)c1O`, the EC50 was more than 20 µM and the IC50 was determined as 0.372 µM.

Consider `c1cc(N(CCn2cccn2)CCn2cccn2)cc(N(CCn2cccn2)CCn2cccn2)c1`, for which the result was inactive.

Consider `COc1ccc2c(c1)C(O)C(CO)C(C(=O)O)C2` (configuration not stated), for which the EC50 was more than 200 µM and the IC50 is more than 200 µM.

On to `C=Cc1cc[n+](CCCCC[n+]2ccc(C=C)cc2)cc1`, for which the EC50 was more than 100 µM and the IC50 is more than 100 µM.

`COc1cc(OC)c(OC)cc1/C=N/NC(=O)N/N=C/c1cc(OC)c(OC)cc1OC`: the result was inactive.

Take `C[C@H]1S[C@H](c2c(F)cccc2F)n2c1nc1ccccc12`: the EC50 was more than 200 µM and the concentration for half-maximal inhibition (IC50) stood at 33.9 µM.

In the case of `COC(=O)C12CN(C)CC(C(=O)OC)(C1=O)C(c1ccccc1)OC2c1ccccc1` (configuration not stated), the result was inactive.

With `CC(C)(CO)CNc1cc(Cl)nc(N)n1`, the EC50 is more than 200 µM and the IC50 was more than 200 µM.

Take `CCC(=O)C1(c2ccccc2)CCN(C)CC1`: the EC50 is more than 1070 µM.

In the case of `Cc1nc(Nc2ccccc2C)c2ccsc2n1`, the EC50 is more than 263 µM and the IC50 was more than 263 µM.

Consider `O=C(N/N=C/c1ccccc1O)c1ccccc1O`, for which the EC50 was more than 20 µM and the IC50 is 2.34 µM.

In the case of `COC(=O)C1CCC(=O)N1CN(C(C)=O)c1ccccc1` (configuration not stated), the EC50 was more than 200 µM and the IC50 is more than 200 µM.

As for `NC1=NN(c2ccccc2)C(=O)/C1=C\n1c(=S)[nH]c2ccccc21`, the EC50 is more than 200 µM and the IC50 was more than 200 µM.

`Clc1nc(Nc2nc3ccccc3[nH]2)nc(Cl)c1-c1ccccc1`: the outcome was inactive.

On to `CCc1cc(C(N)=S)ccn1`, for which the EC50 was more than 200 µM and the IC50 was more than 200 µM.

For the compound `O=C(NCCCCN(CCCNC(=O)C(F)(F)F)Cc1ccccc1)C(F)(F)F`, the EC50 was more than 200 µM and the IC50 stood at 97.7 µM.

For the compound `C/C=C/C=Nc1c(C#N)c2n(c1C(=O)Nc1ccc(C)cc1)CCC2`, the EC50 was more than 50.1 µM and the IC50 is more than 50.1 µM.

Take `O=C1/C(=C\Oc2ccc(F)cc2)N2CCC1CC2`: the EC50 was more than 200 µM and the IC50 was 102 µM.

On to `O=[N+]([O-])c1cc(C2ON=C(c3ccccc3)N2C23CC4CC(CC(C4)C2)C3)ccc1Cl` (configuration not stated), for which the EC50 was more than 200 µM and the IC50 stood at 81.3 µM.

For the compound `CC(=O)OCCOCn1c2ccccc2c2c3c(c4c5ccccc5n(COCCOC(C)=O)c4c21)C(=O)N(Cc1ccccc1)C3=O`, the result was inactive.

As to `OCC1NC(CO)C(O)C1O` (configuration not stated), the outcome was inactive.

With `Cc1oc2nc(N(C)C)n3nnnc3c2c1C`, the result was inactive.

Turning to `Cc1ccccc1Nc1nc2c(s1)C(=O)c1ccccc1C2=O`, the result was inactive.

For `COc1ccccc1N1CCN(CCCNC(=O)c2cc(Cl)c(N)c(Cl)c2)CC1`, the EC50 was more than 200 µM and the half-inhibitory concentration (IC50) turned out to be 89.1 µM.

On to `CC1=NC(=Cc2cccc(Cl)c2)C(=O)N1n1c(-c2ccccc2)nc2ccccc2c1=O`, for which the EC50 is more than 200 µM and the IC50 came out at 36.3 µM.

On to `CNNC1=NS(=O)(=O)c2cc(C#N)c(Cl)cc2S1`, for which the outcome was inactive.

Regarding `CC12CCC(C(=Nc3ccc([N+](=O)[O-])cc3)C1=O)C2(C)C` (configuration not stated), the EC50 was more than 200 µM and the IC50 was 35.5 µM.

Turning to `CC(C)(c1ccc(C=O)o1)c1ccc(C(C)(C)c2ccc(C=O)o2)o1`, the outcome was inactive.

With `CC(CN(C)C)/C(=N\Nc1ccccc1)c1ccccc1` (configuration not stated), the result was inactive.

For the compound `O=C(Cc1ccccc1)c1ccc(O)cc1O`, the EC50 is more than 200 µM and the IC50 is 85.1 µM.

On to `O=[N+]([O-])c1ccc(S(=O)(=O)N/N=C/c2ccccc2[N+](=O)[O-])cc1`, for which the EC50 is more than 102 µM and the IC50 is more than 102 µM.
